Entries after “also recorded” stand apart in the source; their conditions may differ.
Key:
[1] = tested on: N. meningitidis Nm2C4.3 strain; experiment: Bactericidal activity, colony forming unit count after treatment in liquid culture; format: cell-based, Neisseria meningitidis; settings: 15 min; for bactericidal effect: Gentamicin 150 μg/ml, Trifluoperazine 10 to 50 μM
Experimental: N. meningitidis Nm2C4.3 strain grown in liquid culture at 10^7 CFU/ml were treated with increasing concentrations of Trifluoperazine (10 to 50 μM) or Gentamicin (150 μg/ml) for 15 minutes (A) Bactericidal activity was determined by the count of colony forming units on GCB agar plates 24 h after treatment. (B) Images of the non-treated bacteria or bacteria treated with 30 μM TFP grown for 24 h on GCB agar plates.
Nm2C4.3, a piliated capsulated Opa^−Opc^− variant of the serogroup C meningococcal clinical isolate 8013, was cultured in Dulbecco's Modified Eagle Medium (DMEM) 4.5 g/L-Glutamax media 0.1% BSA during two hours at 37° C. 5% CO2. A bacterial suspension at optical density (OD) 0.1 was then distributed in 24-well plate (1 ml/well). After 1 hour of incubation, Trifluoperazine (Sigma #T8516, stock solution in PBS) was added to obtain final concentrations of 10, 20, 30, 40, and 50 μM. Gentamicin (150 μg/ml in DMEM) and PBS alone were used as controls. After 15 min treatment, serial dilutions were performed in physiological water and 100 μl of each dilution were plated on Petri dishes containing GCB solid media (BD, Difco GC media) containing supplements, incubated overnight and the colony forming units were counted.

[2] = tested on: N. meningitidis 2C4.3 aggregates; format: cell-based, Neisseria meningitidis; settings: for dispersion of bacterial aggregates formed in suspension: aggregates pre-formed 2 h, 20 min, Trifluoperazine 10-40 μM, Gentamicin 150 μg/ml, Cefotaxim 20 μg/ml
Experimental: N. meningitidis 2C4.3 was grown in liquid culture at 10^7 CFU/ml for 2 h to form bacterial aggregates and were treated with increasing concentrations of Trifluoperazine (10 to 40 μM), Gentamicin (150 μg/ml) or cefotaxim (20 μg/ml) for 20 minutes and bacterial aggregates were immediately visualized using a phase-contrast microscope. […] (B) Quantification of the bacterial aggregation was performed using Image J software.
N. meningitidis 2C4.3 wild type strain and the isogenic derivative mutant PilT ([…]PiIT) were grown in liquid culture at 10^7 CFU/ml for 2 h to form bacterial aggregates and then treated with 50 μM Trifluoperazine. Time lapse phase-contrast video microscopy was performed to visualize the effect on bacterial aggregates over time. Images were taken at the indicated time points of the video.
N. meningitidis 2C4.3 was grown in liquid culture at 10^7 CFU/ml for 2 h to form bacterial aggregates and were treated with 30 μM Trifluoperazine for 30 minutes to induce bacterial dispersion or PBS as a control. The medium was replaced to remove the Trifluoperazine and the reformation of bacterial aggregates were visualized overtime using a phase-contrast microscope.
Bacteria were grown in suspension for 2 h then Phenothiazine derivatives were added at the indicated concentrations.
N. meninigitidis 2C4.3 strain was grown in suspension in wells of a 24 well plate, containing 1 ml of DMEM medium supplemented with 10% heat-inactivated fetal calf serum. After 2 h of growth, Trifluoperazine (or control vehicle) was added at various concentrations ranging from 10 to 40 μM for 20 min and the bacterial aggregates were visualized over time using a phase-contrast microscope.
N. meninigitidis 2C4.3 strain was grown in suspension in wells of a 24 well plate, containing 1 ml of DMEM medium supplemented with 10% heat-inactivated fetal calf serum. After 2 h of growth, various concentrations (0.5 to 80 μM) of phenothiazine-derivative compounds or control vehicle (PBS or DMSO) were added to the wells for 30 min and the bacterial aggregates were visualized using a phase-contrast microscope. Were tested phenothiazine-derivative compounds of: • the Piperazine group: Trifluoperazine (Sigma #T8516), Fluphenazine (Sigma #F4765), Prochlorperazine (Sigma #P9178) Perphenazine (Sigma #P6402); • the Piperidine group: Thioridazine (Sigma #T9025) and Mesoridazin (Sigma #M4068); • the Aliphatic group: Chlorpromazine (Sigma #C8138), Promazine (Sigma #P6656), Triflupromazine (Sigma #1686003) and levomepromazine (Sigma #L0500000).

[3] = tested on: HDMECs infected with Nm2C4.3; experiment: Cytoskeleton remodelling and cell junction integrity of infected HDMEC (immunofluorescence); format: cell-based, human; settings: Gentamicin 150 μg/ml 1 h, Trifluoperazine 50 μM applied after gentamicin
Experimental: (A) Experimental procedure: HDMEC were infected for 2 h with Nm2C4.3, treated for 1 h with gentamicin (150 μg/ml) and then 15 min with Trifluoperazine (50 μM) (or solvent alone as a control) and left in medium for 1 h before fixation. (B) Upper panels: Representative fluorescence microscopy showing the effect on the endothelial cell cytoskeleton remodelling analysed by immunostaining of Ezrin and Actin. Lower panels: Effect on the endothelial cell junction integrity was analysed by immunostaining of Actin and VE-cadherin. (C) Quantification of the bacterial colonization (upper panel) Ezrin recruitment and cortical actin polymerization at sites of bacterial adhesion (lower panel) was performed using Image J software.
HDMECs were grown in their specific culture medium (Promocell #C-12210) and confluent monolayers were infected with 2C4.3. Briefly, bacteria were precultured in prewarmed cell culture medium for 1 h 30 min at 37° C. 5% CO2. The OD600 was adjusted to 0.1 and HDMECs were then overlaid with bacteria for 30 min (MOI of 100). Unbound bacteria were removed by three washes in cell culture media and infection was allowed to proceed for 1 h at 37° C. 5% CO2. Gentamicin was added at 150 μg/ml for 1 h, then after three washes in cell culture media, Trifluoperazine was applied where mentioned at 50 μM for 20 min. After three washes in cell culture media, cells were allowed to recover for 1 h in cell culture media. At the indicated time, cells were fixed with 4% Paraformaldehyde for 10 min. Immunolabelling was then performed as above described in example 4, using DAPI, Alexa Fluor 633 Phalloidin, Polyclonal antisera raised against Ezrin, obtained from Pr P. Mangeat (CRBM, Montpellier, France) and anti-human VE-Cadherin (eBioscience #BMS158).

Row | SMILES | bactericidal effect [1] | dispersion of bacterial aggregates formed in suspension [2] | Ezrin recruitment and cortical actin polymerization at bacterial adhesion sites [3] | VE-cadherin staining / endothelial cell junction integrity [3] | bacterial colonies at the endothelial cell surface [3] | viable count of the culture ([1]; Trifluoperazine 10 to 30 μM, culture contained 10^7 CFU/ml) | reversibility of the effect on aggregation upon removal of the drug ([2]; 30 μM for 30 minutes, then medium replaced) | time after addition within which dispersion of aggregates occurs ([2]; time lapse video microscopy, 50 μM)
1 | CN[C@@H]1[C@@H](O)C(O[C@@H]2[C@@H](O)[C@H](O[C@H]3O[C@H]([C@@H](C)NC)CC[C@H]3N)[C@@H](N)C[C@H]2N)OC[C@]1(C)O (stereo partly drawn) [Gentamicin, (3R,4R,5R)-2-{[(1S,2S,3R,4S,6R)-4,6-diamino-3-{[(2R,3R,6S)-3-amino-6-[(1R)-1-(methylamino)ethyl]oxan-2-yl]oxy}-2-hydroxycyclohexyl]oxy}-5-methyl-4-(methylamino)oxane-3,5-diol] | killed all bacteria | did not significantly induce the dispersion | still induced Ezrin recruitment, cortical actin polymerization | discontinuous distribution of VE-cadherin | reduced the number of colonies | – | – | –
2 | CN1CCN(CCCN2c3ccccc3Sc3ccc(C(F)(F)F)cc32)CC1 [Trifluoperazine] | moderate bactericidal effect | induced their dispersion | Few Ezrin recruitment | preserved endothelial cell junction integrity | induced their dispersion; also recorded: induced the dispersion of most of the bacterial colonies | 10^6 CFU/ml | reversible | 10 to 15 min

— patent US20200222418A1, “USE OF PHENOTHIAZINE DERIVATIVE IN THE TREATMENT OF INFECTION CAUSED BY BACTERIA CARRYING TYPE IV PILI” (priority 2017, published 2020)
